Results published in US20170319562A1, “Compositions and Methods for Extended Therapy with Aminopyridines” (Acorda Therapeutics, Inc., priority 2009, published 2017).

Columns and labels:
[1] = test system: patients with multiple sclerosis; experiment: MS-F202 Phase 2 double-blind placebo-controlled dose-comparison study; assay type: in vivo, human; design: change in overall Ashworth score, Mean: scale not given here
Description: The Phase 2, dose-ranging study (MS-F202) was a double-blind, randomized, placebo-controlled, parallel group study with dose levels of 4-aminopyridine-SR of 10 mg, 15 mg or 20 mg b.i.d. Patients were titrated to their randomized dose over two weeks; and the fixed-dose treatment phase was 12 weeks in duration. The prospectively defined primary efficacy variable was the percent change from baseline in average walking speed on the T25FW over the last three visits on the assigned stable dose. Other secondary efficacy variables were the other MSFC assessments (9-hole peg test and PASAT 3″), MSFC combined score, LEMMT, the 12-item Multiple Sclerosis Walking Scale (MSWS-12), Multiple Sclerosis Quality of Life Inventory (MSQLI), Ashworth spasticity score, Clinician Global Impression (CGI), and Subject Global Impression (SGI).
In the study MS-F202, the primary efficacy variable was the percent change from baseline in average walking speed measured using the T25FW. The following sections provide details on the different assessments.
A total of 206 patients with multiple sclerosis were randomized and 195 completed treatment (50/52 on 4-aminopyridine-SR 10 mg b.i.d., 49/50 on 15 mg b.i.d., 51/57 on 20 mg b.i.d. and 45/47 on placebo). The prospectively defined primary efficacy variable was the percent change from baseline in average walking speed on the T25FW over the last three visits on the assigned dose (Visits 7-9, the post-titration, stable dose period). The secondary efficacy variable was response, defined as a 20% or greater improvement in walking speed during the 12-week stable-dose double-blind treatment period (i.e. measurements at Visits 7-9). Other secondary efficacy variables were the other MSFC assessments (9-hole peg test and PASAT 3″), MSFC combined score, LEMMT, MSWS-12, MSQLI, Ashworth spasticity score, CGI, and SGI.
This example provides an embodiment of a method of treating subjects with a sustained release 4-aminopyridine formulation and a Responder analysis of the present invention. This was a Phase 2, double-blind, placebo-controlled, parallel group, 20-week treatment study in 206 subjects diagnosed with multiple sclerosis. This study was designed to investigate the safety and efficacy of three dose levels of 4-aminopyridine-SR, 10 mg b.i.d., 15 mg b.i.d., and 20 mg b.i.d. in subjects with clinically definite multiple sclerosis. The primary efficacy endpoint was an increase, relative to baseline, in walking speed, on the Timed 25 Foot Walk. Secondary efficacy measurements included lower extremity manual muscle testing in four groups of lower extremity muscles (hip flexors, knee flexors, knee extensors, and ankle dorsiflexors); the 9-Hole Peg Test and Paced Auditory Serial Addition Test (PASAT 3″); the Ashworth score for spasticity; Spasm Frequency/Severity scores; as well as a Clinician's (CGI) and Subject's (SGI) Global Impressions, a Subject's Global Impression (SGI), the Multiple Sclerosis Quality of Life Inventory (MSQLI) and the 12-Item Multiple Sclerosis Walking Scale (MSW S-12).
At the first visit (Visit 0), subjects were to enter into a two-week single-blind placebo run-in period for the purpose of establishing baseline levels of function. At Visit 2 subjects were to be randomized to one of four treatment groups (Placebo or 4-aminopyridine-SR 10 mg, 15 mg, 20 mg) and begin two weeks of double-blind dose-escalation in the active drug treatment groups (B, C and D). Group A were to receive placebo throughout the study. Subjects in the 10 mg (Group B) arm of the study took a dose of 10 mg approximately every 12 hours during both weeks of the escalation phase. The 15 mg (Group C) and 20 mg (Group D) dose subjects took a dose of 10 mg approximately every 12 hours during the first week of the escalation phase and titrated up to 15 mg b.i.d. in the second week. Subjects were to be instructed to adhere to an “every 12 hour” dosing schedule. […]

[2] = oral, non-sustained release; cited from earlier work
[3] = test system: normal adult myelinated axons; settings: cited from earlier work
[4] = Fampridine Non-responders, 1st stbl
[5] = Fampridine Non-responders, 2nd stbl
[6] = Fampridine Non-responders, 3rd stbl
[7] = Fampridine Non-responders, titration
[8] = Fampridine Responders, 1st stbl
[9] = Fampridine Responders, 2nd stbl
[10] = Fampridine Responders, 3rd stbl
[11] = Fampridine Responders, titration

Structure (SMILES): Nc1ccncc1 [4-aminopyridine]
- rate of serious AE's ([1]; 10 mg bid): 0%
- rate of serious AE's ([1]; 15 mg bid): 10%
- rate of serious AE's ([1]; 20 mg bid): 12%
- mean reduction from baseline in Overall Ashworth Score, range over visits ([1]; 4-aminopyridine Responders, double-blind): −0.18 to −0.11 units
- change in overall Ashworth score, Mean [1, 4]: −0.08
- percent change in LEMMT, Mean [1, 4]: 0.10
- percent change in Walking Speed, Mean [1, 4]: 3.5
- change in overall Ashworth score, Mean [1, 5]: −0.07
- percent change in LEMMT, Mean [1, 5]: 0.09
- percent change in Walking Speed, Mean [1, 5]: −0.2
- change in overall Ashworth score, Mean [1, 6]: 0.00
- percent change in LEMMT, Mean [1, 6]: 0.10
- percent change in Walking Speed, Mean [1, 6]: −6.5
- change in overall Ashworth score, Mean [1, 7]: −0.16
- percent change in LEMMT, Mean [1, 7]: 0.12
- percent change in Walking Speed, Mean [1, 7]: 8.3
- change in overall Ashworth score, Mean [1, 8]: −0.18
- percent change in LEMMT, Mean [1, 8]: 0.09
- percent change in Walking Speed, Mean [1, 8]: 24.6
- change in overall Ashworth score, Mean [1, 9]: −0.11
- percent change in LEMMT, Mean [1, 9]: 0.09
- percent change in Walking Speed, Mean [1, 9]: 29.0
- change in overall Ashworth score, Mean [1, 10]: −0.18
- percent change in LEMMT, Mean [1, 10]: 0.17
- percent change in Walking Speed, Mean [1, 10]: 27.3
- change in overall Ashworth score, Mean [1, 11]: −0.14
- percent change in LEMMT, Mean [1, 11]: 0.18
- percent change in Walking Speed, Mean [1, 11]: 27.4
- post hoc Responder rate (consistently faster walking speeds on drug) ([1]; combined/pooled 4-aminopyridine-SR groups): approximately 37%
- time of peak plasma concentrations after dosing [2]: ≤ 1 h
- concentrations causing gradual depolarization of the axon resting potential [3]: above 1 mM
- concentrations at which the action potential shows little or no sensitivity ([3]; normal adult myelinated axons): below 100 μM
